Experimental data from patent US8791268B2, “Vanilloid receptor ligands, pharmaceutical compositions containing them, process for making them, and use thereof for treating pain and other conditions” (Gruenenthal GmbH, priority 2007, dated 2014).

Columns and labels:
Assay type in all cases: cell-based
vanilloid receptor (VR1) = vanilloid receptor (VR1) (Homo sapiens (Human), UniProt Q8NER1); test: FLIPR Ca2+ influx assay on CHO-K1 cells transfected with the human VR1 gene, capsaicin stimulus (Pharmacological Method II)
Procedure: Furthermore, preference may be given to compounds of the invention of the general formulas I, Ia, Ib and Ic, which in the FLIPR assay using CHO—K1 cells, which have been transfected with the human VR1 gene in a concentration below 2000 nM, preferably below 1000 nM, more preferably below 300 nM, even more preferably below 100 nM, still more preferably below 75 nM, very preferably below 50 nM and most preferably below 10 nM, cause a 50 percent displacement of capsaicin present in a concentration of 100 nM. In the FLIPR assay, the Ca^2+ influx is quantified with the aid of a Ca^2+-sensitive dye (type Fluo-4, Molecular Probes Europe BV, Leiden, Netherlands) in a fluorescent imaging plate reader (FLIPR, Molecular Devices, Sunnyvale, USA), as described below.
II. Functional Investigations on the Vanilloid Receptor (VR1)
The agonistic or antagonistic action of the substances to be examined on the vanilloid receptor (VR1) can alternatively be determined by the following assay. According to this assay the Ca^2+ influx through the canal is quantified with the aid of a Ca^2+-sensitive dye (type Fluo-4, Molecular Probes, Europe BV, Leiden, Netherlands) in a fluorescent imaging plate reader (FLIPR, Molecular Devices, Sunnyvale, USA).
Chinese hamster ovary cells (CHO—K1 cells, European Collection of Cell Cultures (ECACC) UK) are stably transfected with the VR1 gene. For carrying out functional investigations, these cells are plated on poly-D-lysine-coated, black 96-well plates with a clear bottom (BD Biosciences, Heidelberg, Germany) in a density of 25,000 cells/well. The cells are incubated overnight at 37° C. and 5% CO2 in a culture medium (Nutrient Mixture ‘am’s F12, 10% by volume of FCS (fetal calf serum), 18 μg/mL of L-proline). On the following day the cells are incubated with Fluo-4 (Fluo-4 2 μM, Pluronic F127 0.01 by volume, Molecular Probes in HBSS (Hank's buffered saline solution), Gibco Invitrogen GmbH, Karlsruhe, Germany) for 30 minutes at 37° C. The plates are then washed 3 times with HBSS buffer and, after another incubation over a period of 15 minutes at RT, are used in the FLIPR for Ca^2+ measurement. The Ca^2+-dependent fluorescence is measured prior to and following the addition of the substances being examined (wavelength λex=488 nm, λem=540 nm). Quantification is carried out by measuring the highest fluorescence intensity (PC, fluorescence counts) over time.
The FLIPR protocol consists of two substance additions. First of all, the substances to be tested (10 μM) are pipeted onto the cells and the Ca^2+ influx is compared with the control (capsaicin 10 μM) (percentage activation based on the Ca^2+ signal following addition of 10 μM of capsaicin). Following incubation over a period of 5 minutes 100 nM of capsaicin are applied and the influx of Ca^2+ is likewise determined.
Desensitizing agonists and antagonists lead to a suppression of the Ca^2+ influx. The percentage inhibition compared with the maximum inhibition achieved with 10 μM of capsaicin is calculated.
Based on the percentage displacement effected by different concentrations of the compounds of the general formula Ito be tested, IC50 inhibition concentrations that cause 50 percent displacement of capsaicin are calculated. Conversion using the Cheng Prusoff equation gave Ki values for the test substances (Cheng, Prusoff; Bioch. Pharmacol. 22, 3099-3108, 1973).
The affinity of the compounds of the invention for the vanilloid receptor 1 (VR1/TRPV1-Receptor) was detected as described above (Pharmacological Methods I and II respectively).

[1] = biological target: vanilloid receptor 1 (VR1/TRPV1) (Rattus norvegicus (Rat), UniProt O35433); test: FLIPR Ca2+ influx assay on rat dorsal root ganglia cells, capsaicin stimulus (Pharmacological Method I)
From the text: I. Functional Investigation on the Vanilloid Receptor 1 (VR1/TRPV1 Receptor)
The agonistic or antagonistic action of the substances to be investigated on the vanilloid receptor 1 (VR1/TRPV1) of the species rat can be determined using the following assay. According to this assay, the Ca^2+ influx through the receptor channel is quantified with the aid of a Ca^2+-sensitive dye (Type Fluo-4, Molecular Probes Europe BV, Leiden Netherlands) in a fluorescent imaging plate reader (FLIPR, Molecular Devices, Sunnyvale, USA).
Complete medium: 50 mL of HAMS F12 Nutrient Mixture (Gibco Invitrogen GmbH, Karlsruhe, Germany) with
10% by volume of FCS (fetal calf serum, Gibco Invitrogen GmbH, Karlsruhe, Germany, heat-inactivated);
2 mM of L-glutamine (Sigma, Munich, Germany);
1% by weight of AA solution (antibiotics/antimycotics solution, PAA, Pasching, Austria)
and 25 ng/mL of Medium NGF (2.5 S, Gibco Invitrogen GmbH, Karlsruhe, Germany) Cell culture plate: Poly-D-lysine-coated, black 96-well plates with a clear bottom (96-well black/clear plate, BD Biosciences, Heidelberg, Germany) are additionally coated with laminin (Gibco Invitrogen GmbH, Karlsruhe, Germany) by diluting laminin to a concentration of 100 μg/mL with PBS (Ca—Mg-free PBS, Gibco Invitrogen GmbH, Karlsruhe, Germany). Aliquots having a concentration of 100 μg/mL of laminin are taken and stored at −20° C. The aliquots are diluted with PBS in the ratio 1:10 to 10 μg/mL of laminin and in each case 50 μL of the solution is pipeted into a well of the cell culture plate. The cell culture plates are incubated at 37° C. for at least two hours, the supernatant solution is aspirated and the wells are in each case washed twice with PBS. The coated cell culture plates are stored with supernatant PBS and this is removed only directly before the addition of the cells.
Preparation of the Cells:
The vertebral column is removed from decapitated rats and this is laid directly in a cold, i.e. ice bath-surrounded, HBSS buffer (Hank's buffered saline solution, Gibco Invitrogen GmbH, Karlsruhe, Germany) and 1% by volume of an AA solution (antibiotics/antimycotics solution, PAA, Pasching, Austria) is added. The vertebral column is cut in two, longitudinally, and the vertebral canal is removed together with fascias. Subsequently, the dorsal root ganglia (DRGs) are removed and in turn stored in cold HBSS buffer to which 1% by volume of an AA solution has been added. The DRGs completely freed from blood residues and spinal nerves are in each case transferred to 500 μL of cold collagenase Type 2 (PAA, Pasching, Austria) and incubated at 37° C. for 35 minutes. After the addition of 2.5% by volume of trypsin (PAA, Pasching, Austria), the preparation is incubated at 37° C. for a further 10 minutes. On completion of incubation, the enzyme solution is carefully pipeted off and 500 μL of complete medium are added to the DRGs in each case. The DRGs are in each case repeatedly suspended, drawn through No. 1, No. 12, and No. 16 needles by means of a syringe and transferred to 50 mL Falcon tubes and these are filled to 15 mL with complete medium. The contents of each Falcon tube are in each case filtered through a 70 μm Falcon filter insert and centrifuged at 1200 rpm and RT for 10 minutes. The resulting pellet is in each case taken up in 250 μL of complete medium and the cell count is determined.
The number of cells in the suspension is adjusted to 3×10^5 per mL and in each case 150 μL of this suspension are added to a well of the cell culture plates coated as described above. The plates are allowed to stand at 37° C., 5% by volume of CO2 and 95% relative humidity for two to three days in an incubator. […]

VR1/TRPV1 receptor = VR1/TRPV1 receptor (Homo sapiens (Human), UniProt Q8NER1); test: Inhibition of human VR1/TRPV1 following pH-stimulus
Sequence of VR1/TRPV1 receptor (Q8NER1 whole entry): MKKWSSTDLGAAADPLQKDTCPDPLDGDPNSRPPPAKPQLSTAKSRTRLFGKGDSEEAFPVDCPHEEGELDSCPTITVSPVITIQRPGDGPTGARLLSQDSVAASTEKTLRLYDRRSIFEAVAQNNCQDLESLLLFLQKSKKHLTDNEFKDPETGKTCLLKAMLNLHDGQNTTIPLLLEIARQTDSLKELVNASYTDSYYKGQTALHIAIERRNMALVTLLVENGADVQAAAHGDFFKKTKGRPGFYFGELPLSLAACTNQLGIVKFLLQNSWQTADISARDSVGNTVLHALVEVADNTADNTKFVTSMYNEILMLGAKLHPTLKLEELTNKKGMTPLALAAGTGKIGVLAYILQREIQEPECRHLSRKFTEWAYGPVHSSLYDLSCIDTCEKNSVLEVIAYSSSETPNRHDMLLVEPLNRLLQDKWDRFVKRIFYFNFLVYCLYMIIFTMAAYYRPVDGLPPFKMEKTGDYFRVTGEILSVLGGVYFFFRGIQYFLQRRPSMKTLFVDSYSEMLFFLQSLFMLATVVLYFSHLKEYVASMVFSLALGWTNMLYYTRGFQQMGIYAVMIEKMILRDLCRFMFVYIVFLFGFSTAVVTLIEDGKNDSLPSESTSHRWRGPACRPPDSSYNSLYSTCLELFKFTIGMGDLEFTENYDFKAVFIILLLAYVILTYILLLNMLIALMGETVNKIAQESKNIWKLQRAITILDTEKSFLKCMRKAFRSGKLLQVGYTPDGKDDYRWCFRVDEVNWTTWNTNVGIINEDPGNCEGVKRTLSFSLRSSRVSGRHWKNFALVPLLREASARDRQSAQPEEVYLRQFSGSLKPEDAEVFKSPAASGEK

Sequence of vanilloid receptor (VR1) (Q8NER1 whole entry): as above
Sequence of vanilloid receptor 1 (VR1/TRPV1) (O35433 whole entry): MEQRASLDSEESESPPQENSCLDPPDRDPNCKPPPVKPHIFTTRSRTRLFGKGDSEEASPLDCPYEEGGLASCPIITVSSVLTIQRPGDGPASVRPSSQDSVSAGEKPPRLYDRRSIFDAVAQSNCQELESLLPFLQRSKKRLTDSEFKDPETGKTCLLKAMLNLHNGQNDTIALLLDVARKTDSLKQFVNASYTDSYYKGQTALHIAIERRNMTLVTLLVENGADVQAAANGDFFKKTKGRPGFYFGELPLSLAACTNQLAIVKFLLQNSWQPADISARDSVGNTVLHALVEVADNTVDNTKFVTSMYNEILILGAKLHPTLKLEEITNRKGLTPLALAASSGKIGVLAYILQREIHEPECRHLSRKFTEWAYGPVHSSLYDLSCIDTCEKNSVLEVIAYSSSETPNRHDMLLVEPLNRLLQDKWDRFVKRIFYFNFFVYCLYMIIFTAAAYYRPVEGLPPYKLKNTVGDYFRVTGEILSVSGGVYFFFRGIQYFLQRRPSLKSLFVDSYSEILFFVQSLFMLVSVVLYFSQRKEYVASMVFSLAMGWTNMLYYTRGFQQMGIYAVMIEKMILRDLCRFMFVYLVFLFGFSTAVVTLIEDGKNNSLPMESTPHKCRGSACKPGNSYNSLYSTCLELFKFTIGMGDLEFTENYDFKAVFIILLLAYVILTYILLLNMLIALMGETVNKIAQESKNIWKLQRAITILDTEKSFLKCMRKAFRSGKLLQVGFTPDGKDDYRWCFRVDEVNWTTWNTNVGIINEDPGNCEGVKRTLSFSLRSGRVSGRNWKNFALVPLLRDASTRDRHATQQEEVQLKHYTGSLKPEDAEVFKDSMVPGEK

Row | Ki (vanilloid receptor (VR1)) [nM] | Ki [1] [nM] | IC50 (Human) following pH-stimulus (VR1/TRPV1 receptor; ne = no effect, no reaction observed) | inhibition at 1 µM (VR1/TRPV1 receptor; @ 1 μM, read-out: inhibition (in percent) following pH-stimulus (Human)) [%] | inhibition at 5 µM (VR1/TRPV1 receptor; @ 5 μM, read-out: inhibition (in percent) following pH-stimulus (Human)) [%] | inhibition at 10 µM (VR1/TRPV1 receptor; @ 10 μM, read-out: inhibition (in percent) following pH-stimulus (Human)) [%] | SMILES
1 | 9.6 | 3.4 | ne |  |  |  | CC1CCN(c2nc(C(F)(F)F)ccc2CNC(=O)C(C)c2cc(F)c(N)c(F)c2)CC1 (centres unmarked) [Example 26, 2-(4-Amino-3,5-difluorophenyl)-N-((2-(4-methylpiperidin-1-yl)-6-(trifluoromethyl)pyridin-3-yl)methyl)propanamide]
2 | 7.9 | 7.7 |  | 7 | 35 | 49 | CC1CCN(c2nc(C(F)(F)F)ccc2CNC(=O)C(C)c2cc(O)c([N+](=O)[O-])c(F)c2)CC1 (centres unmarked) [Example 27, 2-(3-Fluoro-5-hydroxy-4-nitrophenyl)-N-((2-(4-methylpiperidin-1-yl)-6-(trifluoromethyl)pyridin-3-yl)methyl)propanamide]
